Data on eight compounds can be found in PubChem BioAssay (NCI).

What all share (experiment): DTP human tumour cell line panel, 48 h
Experiment [1] deals with HCC-2998 colon.
For experiment [2], the system named is HL-60(TB) leukemia.
Experiment [3] relates to LOX IMVI melanoma.
The subject of experiment [4] is MDA-MB-231 breast.
Experiment [5] concerns OVCAR-3 ovarian.
Experiment [6] has as its system OVCAR-4 ovarian.
The subject of experiment [7] is OVCAR-5 ovarian.
For experiment [8], the system named is RXF 393 renal.
Experiment [9] deals with SR leukemia.
The test system of experiment [10] is U251 CNS.

Where “and” joins values, the source holds several entries; their conditions need not be identical. Equal entries are not always repeated.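 Interpolation was linear, between the two tested concentrations surrounding the appropriate level; five concentrations were tested over 48 hours in 96-well plates. GI50 marks 50% less growth. TGI: concentration producing complete growth inhibition.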

For orientation: GI50 means the concentration that inhibits growth by half. In general, TGI refers to the concentration at which net growth stops. `COc1cc(C=NCC(=O)CSC(c2ccccc2)c2ccccc2)cc(OC)c1OC`: the GI50 in experiment [1] is 23 µM; in experiment [2], 8.01 µM; in [3], 23.1 µM; in experiment [4], 18.1 µM; in experiment [5] it was 13.3 µM; in experiment [6], 5.18 µM. Further, the GI50 is 63.5 µM in experiment [7], 23.7 µM in experiment [8], 14 µM in [9] and 32.2 µM in experiment [10]. The TGI in experiment [1] was 57.3 µM; in experiment [2], 26.8 µM; in experiment [3], over 100 µM; in experiment [4] it was over 100 µM; in [5], over 100 µM; in experiment [6], 64.4 µM. The TGI in [7] was over 100 µM; in [8], 96.4 µM; in experiment [9], over 100 µM; in [10] it was over 100 µM.

On to `CCn1cc(C2NC(=O)c3cc(F)ccc3N2)c2cccc(Cl)c21` (stereo not drawn), for which the GI50 in experiment [1] is 0.348 µM; in experiment [2], 0.121 µM; in experiment [3], 0.374 µM; in [4], 0.503 µM; in [5], 0.1 µM; in experiment [6], 2.53 µM. Further, the GI50 in experiment [7] was 0.503 µM; in experiment [8] it was 0.149 µM; in [9], 0.039 µM; in experiment [10], 0.33 µM. Further, the TGI is over 25.5 µM in [1]; 0.731 µM in experiment [2]; over 100 µM in experiment [3]; over 100 µM in [4]; 0.596 µM in [5]; over 100 µM in experiment [6]. The TGI in experiment [7] was over 100 µM; in [8], 0.674 µM; in [9] it was over 100 µM; in experiment [10] it was over 100 µM.

Take `CCc1ccc(/C=C2/SC(=S)NC2=O)cc1`: the GI50 in experiment [1] is 18.8 µM; in [2], 21.6 µM; in [3], 22.4 µM; in experiment [4] it was 18.9 µM; in experiment [5] it was 16.9 µM; in experiment [6] it was 20 µM. The GI50 in experiment [7] was 24.1 µM; in [8], 18.9 µM; in [9], 19.4 µM; in [10], 18.7 µM. The TGI in [1] is 45.7 µM; in experiment [2], 57 µM; in experiment [3], over 71.5 µM; in [4] it was 46.7 µM; in experiment [5] it was 35.3 µM; in experiment [6] it was over 93.3 µM. Further, the TGI was 90.6 µM in experiment [7], 55.7 µM in experiment [8], over 84.9 µM in experiment [9] and 62.6 µM in experiment [10].

Regarding `CC(=O)OCC1OC(O[C@@H]2C[C@H]3C(C)(C)[C@H](OC(C)=O)CC[C@]3(C)[C@H]3CC[C@@H]4[C@]5(CC[C@@]4(C)[C@@]32C)O[C@@H]([C@H](O)C(C)(C)O)C[C@@H]5C)C(O)C(O)C1O` (stereo partly drawn), the GI50 in experiment [1] was 3.64 µM; in experiment [2], 2.93 µM; in experiment [3], 3.61 µM; in [4], 10.2 µM; in experiment [5], 7.05 µM; in experiment [6], 3.35 µM. Moreover, the results for the GI50 in experiment [7] and in [9] were 5.07 µM and 3.08 µM, respectively. Moreover, the TGI turned out to be 15.9 µM in experiment [1]; 10.2 µM in [2]; 15.6 µM in experiment [3]; 22.3 µM in experiment [4]; 20.5 µM in experiment [5]; 16.4 µM in experiment [6]. The TGI was 17.5 µM in experiment [7], 16.1 µM in experiment [8], 12.9 µM in [9] and 19.1 µM in experiment [10].

`O=C(O)c1c(Cl)c(Cl)c(Cl)c(Cl)c1-c1c2cc(I)c(=O)c(I)c-2oc2c(I)c(O)c(I)cc12`: the GI50 in experiment [1] is 36.5 µM; in experiment [2], 73 µM and 42.9 µM; in experiment [3], 19 µM and 34.7 µM; in experiment [4] it was 22.5 µM and 26.7 µM; in experiment [5], 32.1 µM and 33 µM; in [6], 93.1 µM and 43.9 µM. The GI50 is 41.9 µM in [7]; 27.5 µM and 15 µM in experiment [8]; 39.1 µM and 31.6 µM in [9]; 26.3 µM and 35.1 µM in experiment [10]. The TGI was 70.8 µM in [1]; 85.2 µM in experiment [2]; 43.1 µM and 67.9 µM in experiment [3]; 82.8 µM and 75.5 µM in experiment [4]; 72.1 µM in [5]; 105 µM in experiment [6]. Further, the concentration for total growth inhibition (TGI) in experiment [7] was found to be 163 µM; in [8], 45.4 µM; in experiment [9], 87.6 µM; in experiment [10] it was 83.9 µM.

Take `COc1cc(C(=O)c2c(-c3ccccc3)oc3ccccc23)cc(OC)c1O`: the GI50 in [1] is 5.2 µM; in experiment [2] it was 0.565 µM; in experiment [3] it was 4.33 µM; in experiment [4], 4.24 µM; in [5] it was 1.11 µM; in experiment [6], 5.46 µM. Besides, the GI50 is 4.64 µM in [7], 1.76 µM in [8], 0.377 µM in experiment [9] and 3.21 µM in experiment [10]. Besides, the TGI worked out at 20.4 µM in [1]; 3.85 µM in experiment [2]; 21.6 µM in [3]; 22.5 µM in experiment [4]; 5.21 µM in experiment [5]; 24.4 µM in [6]. For the same compound, the TGI in experiment [7] was determined as 32.6 µM; in experiment [8] it was 8.95 µM; in experiment [9], 23.9 µM; in experiment [10] it was 16.1 µM.

For the compound `O=C(/C=C/c1cccs1)Nc1ncc(Cc2ccccc2F)s1`, the GI50 in experiment [1] was 0.463 µM; in experiment [2], 0.213 µM; in experiment [3] it was 0.18 µM; in experiment [4], 0.611 µM; in experiment [5], 0.216 µM; in experiment [6], 0.791 µM. In addition, the GI50 in experiment [7] was 0.506 µM; in experiment [8] it was 0.192 µM; in [9] it was 0.0522 µM; in [10] it was 0.35 µM. For the same compound, the TGI in [1] was over 100 µM; in experiment [2], 0.589 µM; in [3], over 100 µM; in experiment [4] it was over 100 µM; in experiment [5], 0.671 µM; in experiment [6] it was over 100 µM. In addition, the TGI in experiment [7] was over 100 µM; in [8], 0.508 µM; in experiment [9] it was over 100 µM; in [10] it was over 100 µM.

Regarding `CCOC(=O)c1cc2cc([N+](=O)[O-])ccc2oc1=O`, the TGI in experiment [1], in experiment [2], in experiment [3], in [4], in experiment [5] and in [6] was over 100 µM in each case. The total growth inhibition concentration (TGI) in [7], in experiment [8], in experiment [9] and in experiment [10] was over 100 µM throughout.
